Article PMC7604503, “Cyclic peptides can engage a single binding pocket through highly divergent modes” (Proceedings of the National Academy of Sciences of the …, 2020)
Where a SMILES comes first, the peptide text is derived from it. Bridges are numbered along the chain shown (N, C = ends).

Columns and labels:
BRD2-BD1 = molecular target: T1, BRD2-BD1 (Homo sapiens, UniProt P25440); assay: SPR binding of peptides to immobilised biotinylated BET bromodomain
T1 construct: human BRD2 (BD1: 65-194; BD2: 347-455); Avi tag (biotinylated); made in house; host or cells: E. coli BL21(DE3)
Description: (§1) We next assessed the ability of each of the three lead peptides to bind BRD3-BD1. […] To assess selectivity for other BET BDs, we used SPR to determine the binding affinity of each peptide toward the remaining BDs from BRD2, BRD3, and BRD4 (Fig. 1B). […]
(§2) Peptides were synthesised as C-terminal amides using standard fluorenylmethyloxycarbonyl (Fmoc)-strategy solid-phase chemistry using a Syro I automated synthesiser (Biotage) and NovaPEG Rink Amide resin (Novabiochem). Couplings were performed with HBTU/HOBt (1:1) and 6 equivalents of each amino acid. Double couplings were performed for arginine residues.
(§3) Following the final amino acid coupling reaction, the Fmoc group was removed and resin incubated with N-(chloroacetoxy)succinimide (0.2 M in DMF, 1 h, RT). Resin was washed with DMF (5 times) and DCM (5 times) and dried in vacuo.
(§4) Linear peptides were cleaved from the resin by incubation (3 h, RT) with a trifluoroacetic acid (TFA) cleavage cocktail (TFA/2,2’-(ethylenedioxy)diethanethiol/triisopropyl silane/H2O (92.5:2.5:2.5:2.5)) before filtration, concentration in vacuo and precipitation with ice-cold diethyl ether. Crude peptides were washed with diethyl ether (5 times), dried and resuspended in DMSO. The pH was raised to >8 using triethylamine to allow cyclisation. Following incubation (1 h, RT), peptides were re-acidified with TFA for purification.
(§5) Crude peptides were purified by reverse-phase high-performance liquid chromatography using a Chromolith Prep column (Merck) on a Prominence LC-20AP system (Shimadzu) (Solvent A: 0.1% TFA in H2O, Solvent B: 0.1% TFA in acetonitrile) to >95% purity as determined by mass spectrometry (Fig. S17). Purified peptides were reconstituted in DMSO and concentrations determined from their absorbance at 280 nm in 5% DMSO using predicted extinction coefficients.
(§6) Surface plasmon resonance (SPR)
(§7) Measurements were conducted on a T200 or S200 (GE Healthcare) and data analysed using the Biacore Insight Evaluation Software. Experiments were performed at 4 °C in single cycle kinetics mode. Biotinylated BET bromodomains were immobilised on a CAP chip (GE Healthcare) with a […]
(§8) pH 7.5 was used as the running buffer. […]

BRD3-BD2 = molecular target: T2, BRD3-BD2 (Homo sapiens, UniProt Q15059); assay: as above
T2 construct: Avi tag (biotinylated); made in house; host or cells: E. coli BL21(DE3)
Description: as §1, §2, §3, §4, §5, §6, §7, §8

BRD4-BD1 = molecular target: T3, BRD4-BD1 (Homo sapiens, UniProt O60885); assay: as above
T3 construct: BRD4 (BD1: 42-168; BD2: 348-464); Avi tag (biotinylated); made in house; host or cells: E. coli Rosetta2(DE3)
Description: as §1, §2, §3, §4, §5, §6, §7, §8

BRD4-BD2 = molecular target: T4, BRD4-BD2 (Homo sapiens, UniProt O60885); assay: as above
T4 construct: BRD4 (BD1: 42-168; BD2: 348-464); Avi tag (biotinylated); made in house; host or cells: E. coli BL21(DE3)
Description: as §1, §2, §3, §4, §5, §6, §7, §8

BRD2-BD2 = molecular target: T5, BRD2-BD2 (Homo sapiens, UniProt P25440); assay: as above
T5 construct: human BRD2 (BD1: 65-194; BD2: 347-455); Avi tag (biotinylated); made in house; host or cells: E. coli BL21(DE3)
Excerpt: as §1, §5, §6, §7, §8

BRD3-BD1 = molecular target: T6, BRD3-BD1 (Homo sapiens, UniProt Q15059); assay: as above
T6 construct: BRD3 (BD1: 25-147); Avi tag (biotinylated); made in house; host or cells: E. coli BL21(DE3)
Excerpt: as §1, §5, §6, §7, §8

BAZ2A = molecular target: T7, BAZ2A (Homo sapiens, UniProt Q9UIF9); assay: BROMOscan competition binding assay (BromoMAX, Eurofins DiscoverX); details: for Percent Control BAZ2A: compound concentration 1000 nM, lower percentage control = stronger affinity
T7 construct: purchased Eurofins DiscoverX (BROMOscan, BromoMAX)

EP300 = molecular target: T8, EP300 (Homo sapiens, UniProt Q09472); assay: as above; details: for Percent Control EP300: compound concentration 1000 nM, lower percentage control = stronger affinity
T8 construct: purchased Eurofins DiscoverX (BROMOscan, BromoMAX)

TAF1(2) = molecular target: T9, TAF1(2) (Homo sapiens, UniProt P21675); assay: as above; details: for Percent Control TAF1(2): compound concentration 1000 nM, lower percentage control = stronger affinity
T9 construct: TAF1(2); purchased Eurofins DiscoverX (BROMOscan, BromoMAX)
T9 sequence (P21675 1521-1656 limits assumed): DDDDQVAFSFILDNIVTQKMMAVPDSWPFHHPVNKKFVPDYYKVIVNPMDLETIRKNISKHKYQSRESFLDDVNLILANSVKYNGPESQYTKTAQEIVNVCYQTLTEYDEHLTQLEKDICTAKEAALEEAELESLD

TRIM24(PHD,Bromo.) = molecular target: T10, TRIM24(PHD,Bromo.) (Homo sapiens, UniProt O15164); assay: as above; details: for Percent Control TRIM24(PHD,Bromo.): compound concentration 1000 nM, lower percentage control = stronger affinity
T10 construct: purchased Eurofins DiscoverX (BROMOscan, BromoMAX)
T10 sequence (O15164 824-1006 limits assumed): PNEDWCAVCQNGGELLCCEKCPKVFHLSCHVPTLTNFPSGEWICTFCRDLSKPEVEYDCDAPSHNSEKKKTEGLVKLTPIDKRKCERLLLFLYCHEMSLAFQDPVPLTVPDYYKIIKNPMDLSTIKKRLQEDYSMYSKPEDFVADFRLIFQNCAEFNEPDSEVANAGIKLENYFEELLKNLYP

[1] = 4 C, geometric mean and SD of two to five measurements
[2] = gray boxed value: no reproducible signals observed at the concentrations used

CC[C@H](C)[C@@H]1NC(=O)[C@H]([C@@H](C)O)NC(=O)[C@H](CCCCN)NC(=O)[C@H](Cc2c[nH]c3ccccc23)NC(=O)CSC[C@@H](C(N)=O)NC(=O)[C@H](CCC(N)=O)NC(=O)[C@H](CCCCNC(C)=O)NC(=O)[C@H]([C@@H](C)O)NC(=O)[C@H](CCCNC(=N)N)NC(=O)[C@H](Cc2c[nH]c3ccccc23)NC(=O)[C@H]([C@@H](C)O)NC(=O)[C@H](CCCCNC(C)=O)NC(=O)CNC(=O)[C@H](CCCCNC(C)=O)NC1=O [3.1B] ({CH2CO}-WKTIK(Ac)GK(Ac)TWRTK(Ac)QC-NH2; thioether N-14)
Kd (BRD2-BD1; [1]): 0.27 ± 0.16 nM
Kd (BRD3-BD2; [2]): > 10000 nM
Kd (BRD4-BD1; [1]): 0.55 ± 0.33 nM
Kd (BRD4-BD2; [2]): > 10000 nM
Kd (BRD2-BD2; [2]): > 10000 nM
Kd (BRD3-BD1; [1]): 0.49 ± 0.63 nM
Percent Control BAZ2A (BAZ2A): 15%
Percent Control EP300 (EP300): 100%
Percent Control TAF1(2) (TAF1(2)): 82%
Percent Control TRIM24(PHD,Bromo.) (TRIM24(PHD,Bromo.)): 91%

CC[C@H](C)[C@H](NC(=O)[C@H](CCCNC(=N)N)NC(=O)[C@H](CCCCNC(C)=O)NC(=O)[C@H](CCCNC(=N)N)NC(=O)[C@H](CC(C)C)NC(=O)[C@@H]1CSCC(=O)N[C@@H](Cc2c[nH]c3ccccc23)C(=O)N[C@@H](CCCCNC(C)=O)C(=O)NCC(=O)N[C@@H](Cc2ccc(O)cc2)C(=O)N[C@@H](CC(C)C)C(=O)N1)C(=O)N[C@@H](CCC(N)=O)C(=O)N[C@@H](CCCNC(=N)N)C(=O)N[C@H](C(=O)N[C@@H](Cc1ccc(O)cc1)C(=O)N[C@@H](CC(N)=O)C(N)=O)[C@@H](C)O [4.2C] ({CH2CO}-WK(Ac)GYLCLRK(Ac)RIQRTYN-NH2; thioether N-6)
Kd (BRD2-BD1; [2]): > 10000 nM
Kd (BRD3-BD2; [1]): 110 ± 116 nM
Kd (BRD4-BD1; [2]): > 10000 nM
Kd (BRD4-BD2; [1]): 36 ± 35 nM
Kd (BRD2-BD2; [1]): 22 ± 26 nM
Kd (BRD3-BD1; [2]): > 10000 nM
remaining binding at 1 µM (BAZ2A; read-out: Percent Control BAZ2A): 100%
remaining binding at 1 µM (EP300; read-out: Percent Control EP300): 100%
percent of control binding at 1 µM (TAF1(2)): 67%
percent of control binding at 1 µM (TRIM24(PHD,Bromo.)): 98%

CC[C@H](C)[C@@H]1NC(=O)[C@H](Cc2c[nH]c3ccccc23)NC(=O)[C@H](Cc2c[nH]c3ccccc23)NC(=O)CSC[C@@H](C(N)=O)NC(=O)CNC(=O)[C@H](CCCCNC(C)=O)NC(=O)[C@H](CCCCN)NC(=O)[C@H](C(C)C)NC(=O)[C@H](CCCCNC(C)=O)NC(=O)[C@@H]2CCCN2C(=O)[C@H]([C@@H](C)CC)NC1=O [3.1C] ({CH2CO}-WWIIPK(Ac)VKK(Ac)GC-NH2; thioether N-11)
Kd (BRD2-BD1; [1]): 0.19 ± 0.04 nM
Kd (BRD3-BD2; [1]): 13 ± 12 nM
Kd (BRD4-BD1; [1]): 0.35 ± 0.1 nM
Kd (BRD4-BD2; [1]): 340 ± 350 nM
Kd (BRD2-BD2; [1]): 9.2 ± 25 nM
Kd (BRD3-BD1; [1]): 0.08 ± 0.049 nM
Percent Control BAZ2A (BAZ2A): 99%
Percent Control EP300 (EP300): 100%
Percent Control TAF1(2) (TAF1(2)): 79%
Percent Control TRIM24(PHD,Bromo.) (TRIM24(PHD,Bromo.)): 94%
